Laboratory results published in patent publication US20120165384A1, “INHIBITION OF HISTONE ACETYLTRANSFERASES BY CTK7A AND METHODS THEREOF” (JAWAHARLAL NEHRU CENTRE FOR ADVANCED SCIENTIFIC RESEARCH, priority 2009, published 2012).

Key:
[1] = tested on: KB cells; test: In vitro wound-healing assay; format: cell-based; conditions: 24 h, in the presence of serum
Protocol: Cells in medium containing 10% FBS were seeded in 30 mm dishes. After the cells grew to confluence, wounds of constant diameter were made by sterile plastic pipette tip (200-μl) by scratching the monolayers. Cells were washed with the serum free medium twice and refreshed with medium with or without 10% FBS. Cells were treated with or without the HAT inhibitor for 24 h along with 10% serum. The wound photographs were taken under phase-contrast microscope. Serum positive and negative cells act as positive and negative control for the experiments respectively.

[2] = Toxicity in mice after intraperitoneal administration; format: in vivo
Protocol: The in vitro and cell line based studies prompted us to study the role of CTK7A in xenograft mice. […] In order to test the effect of CTK7A on tumor growth, KB cells (2×10^6 cells) were inoculated in nude mice in the right and left flanks, respectively and treated them intraperitoneally with 100 mg/kg body weight/twice a day (for detail see Materials and Methods). […] KB cell tumors were 50% smaller in mice treated with CTK7A than in control untreated mice. The differences in the tumor size between xenografts (Control vs treated) was statistically significant (p<0.05). The levels of H3 acetylation and that of other proteins (e.g. NPM1, GAPDH, p300) were determined using IHC. […] It was observed that CTK7A decreased the levels of H3K9, K14 acetylation (as probed by H3AcK9AcK14) and ac-p300 (FIG. 6b and FIG. 6c). Further to see the site specific effect of CTK7A mediated HAT inhibition on histone acetylation, IHC was done with site specific antibodies. […] Moreover, the levels of COX2, which is induced in many cell types by mitogens, growth factors, cytokine and tumor promoters and has been implicated in many cancers, including oral cancer was also found to be suppressed in CTK7A treated tumors (FIG. 6b).

[3] = tested on: KB cells; test: Senescence-associated β-gal (SA-β-gal) activity analysis; format: cell-based
Protocol: SA-β-gal activity was analyzed in KB cells as described earlier^47.

[4] = tested on: KB cell xenografts; test: Xenograft growth assay; format: in vivo, nude mice (BALB/c); conditions: i.p. 100 mg/kg body weight/twice a day; p<0.05
Protocol: (§1) Animal experiments were performed with the approval by authorized ethics Committee. Sixteen nude mice (BALB/c) were included in the experiments (10 male and 6 female mice). Mice were kept in isolators in a pathogen free environment. All nude mice were 3-4 weeks old at the start of the experiments. KB cells, 2×10^6 cells were inoculated in each mice in the right and left flanks, respectively. Mice were then divided in two groups (5 males and 3 females) in each group. After the tumors grown to palpable in size, CTK7A treatment were given intraperitoneally (i.p) with 100 mg/kg body weight/twice a day. Tumors were measured once in three days with a caliper and their volumes were calculated by the formula: 0.52×D1×(D2)^2, where ‘D1’ and ‘D2’ are, respectively, the longest and shortest dimension. The last dose of the compound (CTK7A) was administered four hour before sacrificing it. Tumors were removed and put into liquid nitrogen or were fixed in 10% formalin for 1-2 h to make blocks to be used for IHC. For comparing tumor sizes between treated and control one-way ANOVA was performed using “Sigmaplot Software”. P-value<0.05 was considered as statistically significant.

[5] = target: T1, PCAF (Homo sapiens, UniProt Q92831); test: HAT assay with recombinant PCAF; format: biochemical
T1 construct: Recombinant baculovirus expressing full-length FLAG-tagged CARM1,CBP and PCAF; FLAG; made in house; host or cells: baculovirus-infected Sf21 cells
Protocol: Recombinant baculovirus expressing full-length FLAG-tagged CARM1,CBP and PCAF were purified by immunoaffinity chromatography using M2-agarose beads followed by elution with FLAG peptide. Baculovirus-expressed full-length hexahistidine-tagged p300, and G9a were purified using Ni-NTA affinity chromatography as described previously^30.
HAT gel fluorography/autoradiography assays were performed as previously reported^30. Kinetic analysis of p300 HAT inhibition was performed as reported earlier^31 in the presence of (0, 30 and 50 μM) CTK7A. The obtained values were plotted as a lineweaver burk plot using Graphpad Prism software. For p300 Autoacetylation assay, reactions of p300 full length (80 ng) were carried out in HAT assay buffer at 30° C. for 10 minutes with or without the protein (NPM1) followed by addition of 1 μl of 4.7 Ci/mmol [^3H] acetyl CoA (NEN-PerkinElmer) and were further incubated for another 10 min in a 30 μl reaction. GAPDH was used as positive control. The radio-labeled acetylated p300 were processed by fluorography followed by autoradiography.

[6] = tested on: H3 acetylation at the cyclin E promoter in KB cells; test: ChIP assay, acetylated H3 at cyclin E promoter; format: cell-based; conditions: 24 hrs treatment
Protocol: The pull-downs for ChIP assay was performed using anti-acetylated H3 (H3AcK9AcK14) (Santa Cruz) antibody. KB cells were maintained in DMEM supplemented with 10% FBS were treated with CTK7A and cells were grown for 24 hrs. For ChIP assay cells were processed as described elsewhere^47. The pulldown was done using antibody against the above antibody and the immunoprecipitated samples were deproteinized and ethanol-precipitated to recover the DNA. Real-time PCR analysis was performed using primers for the cyclin E promoter region. PCR primers for the cyclin E promoter region were […]

[7] = tested on: KB cell tumors; test: Immunohistochemistry of KB cell tumors from treated mice; format: in vivo, nude mice (BALB/c)
Protocol: After deparafinizing, slides were rinsed in ethanol. Antigen retrieval was performed with sodium citrate (10 mM pH 6.0) for 5 min at 98° C. The staining was performed with the Envision kit (Dako, Denmark). Counterstaining was performed with Mayer's haematoxylin, and mounted in DPX and air dried. Each of the sample specimens was pathologically confirmed before carrying out the immunohistochemistry. For statistical analysis, cells (100 cells from a total of 5-6 independent fields) were counted from both normal and tumor tissue sections and scored for percentage of positive cells (brown colour) for the indicated antibodies. For comparison one-way ANOVA was performed using “Sigmaplot Software”. P-value<0.01 was considered as statistically significant, n=31.
as §1

T1 sequence (Q92831 whole entry, species assumed): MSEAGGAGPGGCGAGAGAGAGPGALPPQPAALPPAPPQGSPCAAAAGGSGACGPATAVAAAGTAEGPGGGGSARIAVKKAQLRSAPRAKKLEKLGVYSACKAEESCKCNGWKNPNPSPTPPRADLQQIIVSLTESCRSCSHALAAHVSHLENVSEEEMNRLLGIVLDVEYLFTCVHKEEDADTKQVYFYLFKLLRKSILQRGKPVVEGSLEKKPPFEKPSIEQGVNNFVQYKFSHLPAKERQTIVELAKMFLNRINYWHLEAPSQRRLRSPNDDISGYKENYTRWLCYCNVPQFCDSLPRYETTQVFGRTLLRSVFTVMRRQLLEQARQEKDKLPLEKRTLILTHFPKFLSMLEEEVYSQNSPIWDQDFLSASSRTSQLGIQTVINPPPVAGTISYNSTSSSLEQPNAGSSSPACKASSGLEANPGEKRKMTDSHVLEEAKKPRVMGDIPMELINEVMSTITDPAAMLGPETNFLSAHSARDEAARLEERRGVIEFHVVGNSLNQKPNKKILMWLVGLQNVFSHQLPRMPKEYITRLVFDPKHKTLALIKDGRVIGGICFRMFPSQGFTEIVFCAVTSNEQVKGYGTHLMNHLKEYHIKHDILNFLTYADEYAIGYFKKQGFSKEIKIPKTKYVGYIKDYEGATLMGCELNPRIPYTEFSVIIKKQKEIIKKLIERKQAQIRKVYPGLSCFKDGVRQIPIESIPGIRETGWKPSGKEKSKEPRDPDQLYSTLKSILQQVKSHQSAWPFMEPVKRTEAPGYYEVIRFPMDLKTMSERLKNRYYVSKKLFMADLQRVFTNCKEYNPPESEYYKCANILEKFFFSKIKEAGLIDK

For `COc1cc([O-])cc(C=CC2=NN(c3ccc(C(=O)[O-])cc3)C(C=Cc3cc([O-])cc(OC)c3)C2)c1.[Na+].[Na+].[Na+]` (centres unmarked) [CTK7A, Sodium 4-(3,5-bis(3-methoxy-5-oxidostyryl)-4,5dihydro-1H-pyrazole-1-yl)benzoate], the wound healing activity [1] was “reduction”, the body weight loss ([2]; doses up to 100 mg/kg body weight/twice a day during 1 month) was “no observed weight loss” and the toxicity to mice ([2]; intraperitoneal (i.p) administration) was “not toxic”. For the same molecule, the “expression of senescence associated beta-galactosidase (SA-β-gal)” value [3] was “induced”, the “KB cell tumors smaller than in control untreated mice” value [4] was 50% and the “inhibition of PCAF HAT activity” value [5] was “inhibit”. The “acetylation of H3 at the cyclin E promoter” value [6] was “inhibited”, the “levels of COX2 in tumors (IHC)” value ([7]; i.p. 100 mg/kg twice a day) was “suppressed” and the “levels of GAPDH in tumors (IHC)” value ([7]; i.p. 100 mg/kg twice a day) was “down regulated”. The “levels of H3K9, K14 acetylation (H3AcK9AcK14) in tumors (IHC)” value ([7]; i.p. 100 mg/kg twice a day) was “decreased”, the “levels of NPM1 in tumors (IHC)” value ([7]; i.p. 100 mg/kg twice a day) was “down regulated” and the “levels of ac-p300 in tumors (IHC)” value ([7]; i.p. 100 mg/kg twice a day) was “decreased”. The “levels of iNOS in tumors (IHC)” value ([7]; i.p. 100 mg/kg twice a day) was “down regulated”, the “p300 expression in tumors (IHC)” value ([7]; i.p. 100 mg/kg twice a day) was “marginal affect” and the “proliferation marker Ki-67 in tumors (IHC)” value ([7]; i.p. 100 mg/kg twice a day) was “down regulation”. The “nuclear GAPDH in tumors (IHC)” value ([7]; present in control mice) was “absent or very faintly present” and the “inhibition of H3K14 acetylation compared with H3K9 acetylation in tumors (IHC)” value ([7]; site specific antibodies) was “more potently”.
